Measurements published in US20070087364A1, “In vitro erythroid micronucleus assay for genotoxicity” (Massachusetts Institute of Technology, priority 2005, published 2007).
“Also recorded” adds a separate entry of the source.

Assays:
[1] = tested on: bone marrow PCEs (reticulocytes); settings: mouse; cited from earlier work
[2] = bolus injection of 25 mg/kg, cited from earlier work
[3] = tested on: bone marrow; settings: dose concentrations up to 20 μM, in vitro dosing (Glassner 1999); cited from earlier work
[4] = tested on: MGMT^−/− Lin^− BM; test: in vitro erythroid micronucleus assay, MGMT−/− Lin− bone marrow; settings: introduced 10 h, 23 h or 30 h after seeding, harvest 72 h
[5] = tested on: Lin^− fraction of C57BL/6J (mouse) BM; test: in vitro erythroid micronucleus assay, erythropoietic culture of wild-type Lin− bone marrow

Question: For COS(C)(=O)=O [MMS, methylmethane sulfonate], which “result in the in vivo MN assay” value [1] is on record?
Answer: test positive

Question: For O=NN(CCCl)C(=O)NCCCl [BCNU, 1,3-bis (2-chloroethyl) -1-nitrosourea], which peak plasma concentration ([2]; after 1 minute (Meulemans 1989)) is on record?
Answer: ~0.4 mM

Question: And the plasma level ([2]; within the next 15 minutes (Meulemans 1989))?
Answer: approximately 40 μM

Question: And the “cell survival as measured by colony assay” value [3]?
Answer: ~100%

Question: And the “MN frequency, MGMT−/− vs wild-type cultures” value ([4]; 10 μM and 20 μM doses)?
Answer: significant increases in MN frequency; also recorded: more sensitive to growth-inhibition and MN-formation

Question: What about the “cell survival (growth inhibition), MGMT−/− vs wild-type cultures” value [4] of the same compound?
Answer: decreased cell survival

Question: And the “MN frequency in the PCE population (MN-PCE frequency)” value ([5]; 20 μM introduced 7 hours after seeding, harvest after 72 hours, vs vehicle control)?
Answer: provides a clear signal of genotoxicity; also recorded: significantly different than those exposed to vehicle control alone; also recorded: an increase in the frequency of MN-PCEs

Question: And the “cell killing and MN formation” value ([5]; MGMT+/+ BM cultures treated 4 h after culture initiation (data not shown))?
Answer: cell-killing dominated and very little MN formation was observed
